Results as given in patent US20220117938A1, “COMBINATON THERAPY WITH A DON PRODRUG AND AN IMMUNE CHECKPOINT INHIBITOR” (DRACEN PHARMACEUTICALS, INC., priority 2019, published 2022).

Tested on: MC-38 tumors
Assay: Anti-tumor efficacy of Compound 1 in the subcutaneous MC-38 murine colorectal cancer model: dose response (Example 1)
Format: in vivo, Mus musculus
Details: for Tumor volume (mm^3), Mean ± SEM: n = 8; for RTV at day 14 / T/C (%) / TGI (%) / Tumor Size (mm^3) at day 14: day 14; for ILS (%) / MST: endpoint tumor volume 2000 mm^3
Protocol: Female C57BL/6 mice were inoculated subcutaneously at right flank with MC-38 cells for tumor development. Four days after tumor inoculation, 64 mice with tumor size ranging from 50-92 mm^3 (average tumor size 63 mm^3) were selected and assigned into 8 groups using stratified randomization with 8 mice per group based upon their tumor volumes. The treatments were started from the day of randomization (defined as D0), Group 1 was treated with Vehicle (Tween 80:Ethanol:Saline—5:5:90 v/v/v), S.C. QD, Group 2 was treated with Compound 1 (0.1 mg/kg), S.C. QD, Group 3 was treated with Compound 1 (0.3 mg/kg), S.C. QD, Group 4 was treated with Compound 1 (0.5 mg/kg), S.C. QD, Group 5 was treated with Compound 1 (1 mg/kg), S.C. QD, Group 6 was treated with Compound 1 (3 mg/kg), S.C. QD*5 days followed by Compound 1 (1 mg/kg), S.C. QD*9 days (2 cycles), Group 7 was treated with Compound 1 (1 mg/kg), S.C. QD*5 days followed by Compound 1 (0.3 mg/kg), S.C. QD*9 days (2 cycles) and Group 8 was treated with Compound 1 (0.15 mg/kg), S.C. BID. The tumor sizes were measured three times per week during the treatment. The entire study was terminated on D74 after start of the treatment.
Animal Species: Mus musculus; Strain: C57BL/6; Age: 6-8 weeks; Sex: female; Body weight (at treatment start): 17-21 g.
The MC-38 tumor cells were maintained in vitro as a monolayer culture in DMEM medium supplemented with 10% heat inactivated fetal bovine serum and 100 μg/mL penicillin streptomycin at 37° C. in an atmosphere of 5% CO2 in air. The tumor cells were routinely subcultured twice weekly by trypsin-EDTA treatment. The cells growing to a confluency around 70%-80% were harvested and counted for tumor inoculation. The cultured MC-38 were harvested, re-suspended in base medium at a density of 1×10^7 cells/mL with viability>90%. Each mouse was inoculated subcutaneously at the right flank with 1×10^6 in 0.1 ml base medium for tumor development.
The treatments were started on day 4 after tumor inoculation when the tumor size reached 50-92 mm^3 (average tumor size 63 mm^3). Each group consisted of 8 tumor bearing mice. The testing article was administrated at a dosing volume of […] to the mice according to the predetermined regimen shown in Table 1-1. Testing article formulations were prepared according to standard procedures. Details regarding tumor measurements and endpoints, and statistical analysis are provided in EXAMPLE 3.
Tumor sizes were measured three times a week in two dimensions using a caliper, and the volume expressed in mm^3 using the formula: V=0.5 a×b^2 where a and b are the long and short diameters of the tumor, respectively. The tumor sizes were then used for the calculations of both tumor growth inhibition (TGI) and T/C values.
TGI is calculated for each group using the formula: […]
TVTreatment_DayN is the average tumor volume of a treatment group on a given day, TVTreatment_Day0 is the average tumor volume of the treatment group on the first day of treatment, TVVehicle_DayN is the average tumor volume of the vehicle control group on a given day, and TVVehicle_Day0 is the average tumor volume of the vehicle group on the first day of treatment.
The T/C value (in percent) is an indication of antitumor effectiveness, T/C (%)=RTVTreatment/RTVControl×100% (RTVTreatment: the mean RTV of the treatment group; RTVControl: the mean RTV of the vehicle treated group). RTV (relative tumor volume)=TVDayN/TVDay0. TVDayN and TVDay0 is the tumor volume on day N and Day 0 respectively. T/C (%)≤42% is considered as significant antitumor activity and <10% is considered as highly significant antitumor activity by the National Cancer Institute criteria.
Animal survival curve: When an individual animal reached to the termination endpoint (TV>2000 mm^3), the mouse was euthanized. The time from treatment initiation to the termination was deemed as its survival time. Survival curve was plotted by Kaplan-Meier method. Median survival time (MST) was calculated for each group. […]

In the case of `CC(=O)N[C@@H](Cc1c[nH]c2ccccc12)C(=O)N[C@@H](CCC(=O)C=[N+]=[N-])C(=O)OC(C)C` [Compound 1, Isopropyl (S)-2-((S)-2-acetamido-3-(1H-indol-3-yl)propanamido)-6-diazo-5-oxohexanoate], the “Tumor volume (mm^3), Mean ± SEM” value (0.1 mg/kg S.C. QD, Day 0) is reported as 62 ± 4 mm^3, the “Tumor volume (mm^3), Mean ± SEM” value (0.1 mg/kg S.C. QD, Day 2) is reported as 91 ± 10 mm^3 and the “Tumor volume (mm^3), Mean ± SEM” value (0.1 mg/kg S.C. QD, Day 4) is reported as 112 ± 11 mm^3. The “Tumor volume (mm^3), Mean ± SEM” value (0.1 mg/kg S.C. QD, Day 7) was 183 ± 32 mm^3, the “Tumor volume (mm^3), Mean ± SEM” value (0.1 mg/kg S.C. QD, Day 9) was 247 ± 40 mm^3 and the “Tumor volume (mm^3), Mean ± SEM” value (0.1 mg/kg S.C. QD, Day 11) was 368 ± 72 mm^3. For the same compound, the “Tumor volume (mm^3), Mean ± SEM” value (0.1 mg/kg S.C. QD, Day 14) was 744 ± 154 mm^3, the “RTV at day 14” value (0.1 mg/kg S.C. QD) was 12.29 ± 7.63 and the “T/C (%)” value (0.1 mg/kg S.C. QD) was 40.26%. For the same compound, the “TGI (%)” value (0.1 mg/kg S.C. QD) was 62.52%, the “Tumor Size (mm^3) at day 14” value (0.1 mg/kg S.C. QD) was 743.79 ± 153.64 mm^3 and the “ILS (%)” value (0.1 mg/kg) was 22%. The “MST” value (0.1 mg/kg) was 19.5 days, the “ILS (%)” value (0.15 mg/kg (BID)) was 88% and the “MST” value (0.15 mg/kg (BID)) was 30 days. The “Tumor volume (mm^3), Mean ± SEM” value (0.15 mg/kg S.C. BID, Day 0) was 63 ± 5 mm^3, the “Tumor volume (mm^3), Mean ± SEM” value (0.15 mg/kg S.C. BID, Day 2) was 87 ± 6 mm^3 and the “Tumor volume (mm^3), Mean ± SEM” value (0.15 mg/kg S.C. BID, Day 4) was 109 ± 6 mm^3. For the same compound, the “Tumor volume (mm^3), Mean ± SEM” value (0.15 mg/kg S.C. BID, Day 7) was 195 ± 28 mm^3, the “Tumor volume (mm^3), Mean ± SEM” value (0.15 mg/kg S.C. BID, Day 9) was 237 ± 30 mm^3 and the “Tumor volume (mm^3), Mean ± SEM” value (0.15 mg/kg S.C. BID, Day 11) was 288 ± 43 mm^3. The “Tumor volume (mm^3), Mean ± SEM” value (0.15 mg/kg S.C. BID, Day 14) was 369 ± 56 mm^3, the “Tumor volume (mm^3), Mean ± SEM” value (0.3 mg/kg S.C. QD, Day 0) was 62 ± 4 mm^3 and the “Tumor volume (mm^3), Mean ± SEM” value (0.3 mg/kg S.C. QD, Day 2) was 76 ± 5 mm^3. The “Tumor volume (mm^3), Mean ± SEM” value (0.3 mg/kg S.C. QD, Day 4) was 88 ± 7 mm^3, the “Tumor volume (mm^3), Mean ± SEM” value (0.3 mg/kg S.C. QD, Day 7) was 110 ± 14 mm^3 and the “Tumor volume (mm^3), Mean ± SEM” value (0.3 mg/kg S.C. QD, Day 9) was 143 ± 26 mm^3. For the same compound, the “Tumor volume (mm^3), Mean ± SEM” value (0.3 mg/kg S.C. QD, Day 11) was 140 ± 29 mm^3, the “Tumor volume (mm^3), Mean ± SEM” value (0.3 mg/kg S.C. QD, Day 14) was 235 ± 80 mm^3 and the “RTV at day 14” value (0.3 mg/kg S.C. QD) was 3.83 ± 3.95. The “T/C (%)” value (0.3 mg/kg S.C. QD) was 12.54%, the “TGI (%)” value (0.3 mg/kg S.C. QD) was 90.47% and the “Tumor Size (mm^3) at day 14” value (0.3 mg/kg S.C. QD) was 235.18 ± 79.89 mm^3. The “ILS (%)” value (0.3 mg/kg) was 94%, the “MST” value (0.3 mg/kg) was 31 days and the “Tumor volume (mm^3), Mean ± SEM” value (0.5 mg/kg S.C. QD, Day 0) was 63 ± 5 mm^3. For the same compound, the “Tumor volume (mm^3), Mean ± SEM” value (0.5 mg/kg S.C. QD, Day 2) was 79 ± 4 mm^3, the “Tumor volume (mm^3), Mean ± SEM” value (0.5 mg/kg S.C. QD, Day 4) was 97 ± 8 mm^3 and the “Tumor volume (mm^3), Mean ± SEM” value (0.5 mg/kg S.C. QD, Day 7) was 112 ± 8 mm^3. For the same compound, the “Tumor volume (mm^3), Mean ± SEM” value (0.5 mg/kg S.C. QD, Day 9) was 109 ± 7 mm^3, the “Tumor volume (mm^3), Mean ± SEM” value (0.5 mg/kg S.C. QD, Day 11) was 84 ± 9 mm^3 and the “Tumor volume (mm^3), Mean ± SEM” value (0.5 mg/kg S.C. QD, Day 14) was 97 ± 17 mm^3. For the same compound, the “RTV at day 14” value (0.5 mg/kg S.C. QD) was 1.63 ± 0.88, the “T/C (%)” value (0.5 mg/kg S.C. QD) was 5.33% and the “TGI (%)” value (0.5 mg/kg S.C. QD) was 98.16%.
